Data taken from ChEMBL document CHEMBL3232722, “Synthesis and kinase inhibitory activity of new sulfonamide derivatives of pyrazolo[4,3-e][1,2,4]triazines” (Eur J Med Chem, 2014).
Calls of active or inactive are those of the source. No cut-off for these calls is given here.

What was measured:
MCF7 [1] = assay: In vitro antiproliferative activity against human MCF7 cells assessed as decrease cell viability after 24 hrs by MTT assay; type: functional, cell-based; details: for IC50: MCF7, 24 h
MDA-MB-231 [2] = assay: In vitro antiproliferative activity against human MDA-MB-231 cells assessed as decrease in cell vaibility after 24 hrs by MTT assay; type: functional, cell-based; details: for IC50: MDA-MB-231, 24 h
K562 [3] = assay: In vitro antiproliferative activity against human K562 cells assessed as decrease in cell viability after 24 hrs by MTT assay; type: functional, cell-based; details: for IC50: K562, 24 h
[4] = (§1) In vitro antiproliferative activity against human BV173 cells assessed as decrease in cell viability after 24 hrs by MTT assay; type: functional, cell-based; details: BV-173, 24 h
BV-173 = assay: as §1; type: functional, cell-based
HL-60 = assay: In vitro antiproliferative activity against human HL60 cells assessed as decrease in cell viability after 24 hrs by MTT assay; type: functional, cell-based; details: for IC50: HL-60, 24 h
CCRF-CEM = assay: In vitro antiproliferative activity against human CCRF-CEM cells assessed as decrease in cell viability after 24 hrs by MTT assay; type: functional, cell-based
MCF7 [5] = assay: Cytostatic activity against human MCF7 cells assessed as decrease in [3H]thymidine incorporation into DNA after 24 hrs by liquid scintillation counting analysis; type: functional, cell-based
MDA-MB-231 [6] = assay: Cytostatic activity against human MDA-MB-231 cells assessed as decrease in [3H]thymidine incorporation into DNA after 24 hrs by liquid scintillation counting analysis; type: functional, cell-based
K562 [7] = assay: Antiproliferative activity against human K562 cells assessed as increase in number of cells with compromised cell membranes at 10 to 100 uM after 24 hrs by propidium iodide exclusion assay based flow cytometry; type: functional
K562 [8] = assay: Effect on cell cycle distribution in human K562 cells after 24 hrs by propidium iodide staining based flow cytometry; type: functional
K562 [9] = assay: Induction of apoptosis in human K562 cells assessed as increase in sub-diploid cell population at 10 to 100 uM after 24 hrs by propidium iodide staining based flow cytometry; type: functional
[10] = target: T1, Tyrosine-protein kinase ABL1 (Homo sapiens, UniProt P00519); assay: Inhibition of recombinant Abl kinase (unknown origin) expressed in Sf9 cells using GGEAIYAAPFKK as substrate in presence of [gamma33P]ATP
T1 sequence (P00519 whole entry): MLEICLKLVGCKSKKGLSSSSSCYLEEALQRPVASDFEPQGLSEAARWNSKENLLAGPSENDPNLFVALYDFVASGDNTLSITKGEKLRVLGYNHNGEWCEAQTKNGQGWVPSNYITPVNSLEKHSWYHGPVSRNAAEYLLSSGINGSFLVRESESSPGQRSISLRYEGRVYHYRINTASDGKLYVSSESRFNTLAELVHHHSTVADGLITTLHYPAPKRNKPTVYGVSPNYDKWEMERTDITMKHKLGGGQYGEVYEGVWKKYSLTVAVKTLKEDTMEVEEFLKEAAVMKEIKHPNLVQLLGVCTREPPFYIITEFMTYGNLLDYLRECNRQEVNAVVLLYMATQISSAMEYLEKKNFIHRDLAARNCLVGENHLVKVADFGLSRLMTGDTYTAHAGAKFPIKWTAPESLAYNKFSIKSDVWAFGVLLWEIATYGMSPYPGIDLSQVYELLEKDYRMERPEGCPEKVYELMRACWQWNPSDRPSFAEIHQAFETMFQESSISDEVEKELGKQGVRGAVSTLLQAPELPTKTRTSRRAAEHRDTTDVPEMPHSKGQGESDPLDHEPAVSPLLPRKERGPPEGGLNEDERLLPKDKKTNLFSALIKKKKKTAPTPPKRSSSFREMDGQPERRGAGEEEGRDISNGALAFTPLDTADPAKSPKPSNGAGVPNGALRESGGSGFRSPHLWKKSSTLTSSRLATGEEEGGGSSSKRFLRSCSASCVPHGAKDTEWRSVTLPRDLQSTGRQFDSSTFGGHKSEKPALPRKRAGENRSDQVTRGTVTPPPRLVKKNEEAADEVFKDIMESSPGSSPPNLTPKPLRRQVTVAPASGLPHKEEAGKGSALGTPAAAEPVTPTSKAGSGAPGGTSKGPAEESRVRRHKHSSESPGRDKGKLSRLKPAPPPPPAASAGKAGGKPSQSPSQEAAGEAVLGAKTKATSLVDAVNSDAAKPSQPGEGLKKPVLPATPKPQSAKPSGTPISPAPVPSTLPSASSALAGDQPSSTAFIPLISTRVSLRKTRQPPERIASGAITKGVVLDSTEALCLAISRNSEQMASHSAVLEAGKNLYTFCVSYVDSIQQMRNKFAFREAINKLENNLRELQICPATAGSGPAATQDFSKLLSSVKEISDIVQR

[11] = target: Cyclin-dependent kinase 2/cyclin E1 (Homo sapiens, UniProt P24941); assay: Inhibition of CDK2/cyclin E (unknown origin) expressed in Sf9 cells using histone H1 as substrate in presence of [gamma33P]ATP
[12] = target: Casein kinase II subunit alpha (Homo sapiens, UniProt P68400); assay: Inhibition of CK2alpha1 (unknown origin) using casein as substrate in presence of [gamma33P]ATP
Casein kinase II subunit alpha, sequence (P68400 whole entry, the tested form may be a part): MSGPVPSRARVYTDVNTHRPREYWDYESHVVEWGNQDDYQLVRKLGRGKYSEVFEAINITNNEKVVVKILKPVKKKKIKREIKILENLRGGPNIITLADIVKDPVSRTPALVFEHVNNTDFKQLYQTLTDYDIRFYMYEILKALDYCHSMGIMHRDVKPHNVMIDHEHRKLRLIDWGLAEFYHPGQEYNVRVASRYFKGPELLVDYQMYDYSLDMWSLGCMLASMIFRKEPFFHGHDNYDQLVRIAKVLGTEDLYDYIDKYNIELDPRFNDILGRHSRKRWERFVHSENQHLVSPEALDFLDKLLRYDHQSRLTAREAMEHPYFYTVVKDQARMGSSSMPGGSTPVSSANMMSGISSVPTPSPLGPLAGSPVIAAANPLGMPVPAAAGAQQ

[13] = target: T2, Bcr/Abl fusion protein (Homo sapiens) (UniProt P00519+P11274); assay: Inhibition of Bcr/Abl kinase in human K562 cells assessed as decrease in STAT5 phosphorylation at Tyr694 after 1 hr by immunoblot analysis; type: cell-based
T2 sequence (P00519 whole entry, looked up, the tested form may be a part): as the sequence (P00519 whole entry) above
T2 sequence (P11274 whole entry, looked up, the tested form may be a part): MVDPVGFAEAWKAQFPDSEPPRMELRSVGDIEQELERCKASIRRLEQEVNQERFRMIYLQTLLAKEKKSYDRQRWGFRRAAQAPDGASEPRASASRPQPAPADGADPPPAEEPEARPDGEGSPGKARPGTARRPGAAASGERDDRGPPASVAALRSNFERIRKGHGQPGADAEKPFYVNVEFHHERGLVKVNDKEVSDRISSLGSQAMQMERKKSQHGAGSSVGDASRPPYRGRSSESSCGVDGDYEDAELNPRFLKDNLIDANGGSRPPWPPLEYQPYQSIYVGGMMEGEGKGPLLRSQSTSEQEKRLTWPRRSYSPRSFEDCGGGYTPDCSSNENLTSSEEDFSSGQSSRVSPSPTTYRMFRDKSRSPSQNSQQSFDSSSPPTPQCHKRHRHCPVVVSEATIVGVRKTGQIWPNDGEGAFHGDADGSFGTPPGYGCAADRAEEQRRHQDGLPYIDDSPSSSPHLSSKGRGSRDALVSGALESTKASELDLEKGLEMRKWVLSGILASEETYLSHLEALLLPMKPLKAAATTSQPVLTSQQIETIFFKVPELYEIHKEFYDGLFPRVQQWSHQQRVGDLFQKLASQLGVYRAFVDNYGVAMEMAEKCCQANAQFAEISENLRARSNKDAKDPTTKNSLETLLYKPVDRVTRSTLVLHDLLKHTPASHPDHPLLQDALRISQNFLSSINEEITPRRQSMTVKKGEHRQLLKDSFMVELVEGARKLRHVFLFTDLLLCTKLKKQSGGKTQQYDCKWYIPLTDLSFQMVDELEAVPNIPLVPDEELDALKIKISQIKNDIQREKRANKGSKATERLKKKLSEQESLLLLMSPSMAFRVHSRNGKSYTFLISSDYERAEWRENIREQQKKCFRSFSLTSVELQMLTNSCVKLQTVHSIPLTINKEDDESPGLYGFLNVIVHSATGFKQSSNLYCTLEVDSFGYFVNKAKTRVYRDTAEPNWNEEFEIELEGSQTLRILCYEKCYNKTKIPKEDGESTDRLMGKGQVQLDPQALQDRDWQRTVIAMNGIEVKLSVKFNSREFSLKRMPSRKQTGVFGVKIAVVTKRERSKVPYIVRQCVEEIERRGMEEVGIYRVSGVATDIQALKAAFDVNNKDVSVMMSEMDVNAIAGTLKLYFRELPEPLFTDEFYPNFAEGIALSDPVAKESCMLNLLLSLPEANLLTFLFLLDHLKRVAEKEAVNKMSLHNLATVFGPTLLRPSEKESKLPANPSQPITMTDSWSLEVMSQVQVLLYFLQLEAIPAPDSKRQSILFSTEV

[14] = target: T2, Bcr/Abl fusion protein (Homo sapiens); assay: Inhibition of Bcr/Abl kinase in human K562 cells assessed as decrease in CrkL phosphorylation at Tyr207 at 1 to 100 uM after 1 hr by immunoblot analysis; type: cell-based
[15] = target: T1, Tyrosine-protein kinase ABL1; assay: Inhibition of Abl kinase tyrosine phosphorylation in human K562 cells after 1 hr by immunoblot analysis; type: cell-based
[16] = target: T2, Bcr/Abl fusion protein (Homo sapiens); assay: Inhibition of Bcr/Abl kinase tyrosine phosphorylation in human K562 cells after 1 hr by immunoblot analysis; type: cell-based
K562 [17] = assay: Inhibition of tyrosine phosphorylation of protein with molecular weight between 40 and 60 kDa in human K562 cells after 1 hr by immunoblot analysis; type: functional, cell-based
MCF7 [18] = assay: Ratio of IC50 for human MCF7 cells to IC50 for human K562 cells; type: functional
[19] = target: T1, Tyrosine-protein kinase ABL1; assay: Inhibition of recombinant Abl kinase (unknown origin) expressed in Sf9 cells assessed as residual enzyme activity using GGEAIYAAPFKK as substrate at 10 uM in presence of [gamma33P]ATP
[20] = target: T1, Tyrosine-protein kinase ABL1; assay: Inhibition of recombinant Abl kinase (unknown origin) expressed in Sf9 cells assessed as residual enzyme activity using GGEAIYAAPFKK as substrate at 25 uM in presence of [gamma33P]ATP
[21] = target: T1, Tyrosine-protein kinase ABL1; assay: Inhibition of recombinant Abl kinase (unknown origin) expressed in Sf9 cells assessed as residual enzyme activity using GGEAIYAAPFKK as substrate at 50 uM in presence of [gamma33P]ATP
[22] = target: T1, Tyrosine-protein kinase ABL1; assay: Inhibition of Abl kinase tyrosine phosphorylation in human K562 cells at 1 to 100 uM after 1 hr by immunoblot analysis; type: cell-based
[23] = target: T2, Bcr/Abl fusion protein (Homo sapiens); assay: Inhibition of Bcr/Abl kinase tyrosine phosphorylation in human K562 cells at 1 to 100 uM after 1 hr by immunoblot analysis; type: cell-based
K562 [24] = assay: Inhibition of tyrosine phosphorylation of protein with molecular weight between 40 and 60 kDa in human K562 cells at 1 to 100 uM after 1 hr by immunoblot analysis; type: functional, cell-based
K562 [25] = details: Homo sapiens, 10 uM
Description: Inhibition of tyrosine phosphorylation of protein with molecular weight between 40 and 60 kDa in human K562 cells at 10 uM after 1 hr by immunoblot analysis

MDA-MB-231 [26] = assay: Ratio of IC50 for human MDA-MB-231 cells to IC50 for human K562 cells; type: functional

Cc1nn(C)c2nnc(Nc3ccc(S(=O)(=O)N4CCNCC4)cc3)nc12
inhibition (MCF7 [1]): Dose-dependent effect | IC50 (MCF7 [1]): 150 µM | inhibition (MDA-MB-231 [2]): Dose-dependent effect | IC50 (MDA-MB-231 [2]): 130 µM | inhibition (K562 [3]): Dose-dependent effect | IC50 (K562 [3]): 27 µM | IC50 [4]: 22 µM | inhibition (BV-173): Dose-dependent effect | inhibition (HL-60): Dose-dependent effect | IC50 (HL-60; read-out: IC50): 55 µM | IC50 (CCRF-CEM): 20 µM | inhibition (CCRF-CEM): Dose-dependent effect | IC50 (MCF7 [5]): 170 µM | inhibition (MCF7 [5]): Dose-dependent effect | IC50 (MDA-MB-231 [6]): 103 µM | inhibition (MDA-MB-231 [6]): Dose-dependent effect | Activity (K562 [7]): Active | Activity (K562 [8]): inactive | Activity (K562 [9]): Active | IC50 [10]: 5.8 µM | IC50 [11]: > 25 µM | IC50 [12]: > 25 µM | inhibition [13]: Dose-dependent effect | inhibition [14]: Active | inhibition [15]: Dose-dependent effect | inhibition [16]: Dose-dependent effect | inhibition (K562 [17]): Dose-dependent effect | Ratio IC50 (MCF7 [18]): 5

Cc1nn(C)c2nnc(Nc3ccc(S(=O)(=O)N4CCCC4)cc3)nc12
inhibition (MCF7 [1]): Dose-dependent effect | IC50 (MCF7 [1]): > 200 µM | inhibition (MDA-MB-231 [2]): Dose-dependent effect | IC50 (MDA-MB-231 [2]): > 200 µM | inhibition (K562 [3]): Dose-dependent effect | IC50 (K562 [3]): 102 µM | IC50 [4]: 47 µM | inhibition (BV-173): Dose-dependent effect | inhibition (HL-60): Dose-dependent effect | IC50 (HL-60; read-out: IC50): 56 µM | IC50 (CCRF-CEM): 30 µM | inhibition (CCRF-CEM): Dose-dependent effect | IC50 (MCF7 [5]): > 200 µM | inhibition (MCF7 [5]): Dose-dependent effect | IC50 (MDA-MB-231 [6]): > 200 µM | inhibition (MDA-MB-231 [6]): Dose-dependent effect | IC50 [10]: > 50 µM | Activity [19]: 100% | Activity [20]: 100% | Activity [21]: 90% | IC50 [11]: > 50 µM | IC50 [12]: > 50 µM

Cc1nn(C)c2nnc(Nc3ccc(S(=O)(=O)NCCN)cc3)nc12
inhibition (MCF7 [1]): Dose-dependent effect | IC50 (MCF7 [1]): 126 µM | inhibition (MDA-MB-231 [2]): Dose-dependent effect | IC50 (MDA-MB-231 [2]): 120 µM | inhibition (K562 [3]): Dose-dependent effect | IC50 (K562 [3]): 77 µM | IC50 [4]: 39 µM | inhibition (BV-173): Dose-dependent effect | inhibition (HL-60): Dose-dependent effect | IC50 (HL-60; read-out: IC50): 42 µM | IC50 (CCRF-CEM): 56 µM | inhibition (CCRF-CEM): Dose-dependent effect | IC50 (MCF7 [5]): 85 µM | inhibition (MCF7 [5]): Dose-dependent effect | IC50 (MDA-MB-231 [6]): 90 µM | inhibition (MDA-MB-231 [6]): Dose-dependent effect | Activity (K562 [9]): inactive | IC50 [10]: 15 µM | IC50 [11]: 34.9 µM | IC50 [12]: > 50 µM | inhibition [13]: Dose-dependent effect | inhibition [22]: inactive | inhibition [23]: inactive | inhibition (K562 [24]): inactive

Cc1ccc(NC(=O)c2ccc(CN3CCN(C)CC3)cc2)cc1Nc1nccc(-c2cccnc2)n1 [IMATINIB]
IC50 (K562 [3]): 13 µM | IC50 [4]: 20 µM | IC50 (HL-60): 55 µM | IC50 (CCRF-CEM): 45 µM | inhibition (K562 [25]): Active

Cc1nn(C)c2nnc(Nc3ccc(S(=O)(=O)NCC(O)CO)cc3)nc12 (stereo not given)
inhibition (MCF7 [1]): Dose-dependent effect | IC50 (MCF7 [1]): 200 µM | inhibition (MDA-MB-231 [2]): Dose-dependent effect | IC50 (MDA-MB-231 [2]): 140 µM | inhibition (K562 [3]): Dose-dependent effect | IC50 (K562 [3]): 101 µM | IC50 [4]: 42 µM | inhibition (BV-173): Dose-dependent effect | inhibition (HL-60): Dose-dependent effect | IC50 (HL-60; read-out: IC50): 44 µM | IC50 (CCRF-CEM): 57 µM | inhibition (CCRF-CEM): Dose-dependent effect | IC50 (MCF7 [5]): 130 µM | inhibition (MCF7 [5]): Dose-dependent effect | IC50 (MDA-MB-231 [6]): 130 µM | inhibition (MDA-MB-231 [6]): Dose-dependent effect | IC50 [10]: 34 µM | Activity [19]: 81% | Activity [20]: 56% | Activity [21]: 45% | IC50 [11]: > 50 µM | IC50 [12]: > 50 µM

Cc1nn(C)c2nnc(Nc3ccc(S(=O)(=O)N4CCN(C)CC4)cc3)nc12
inhibition (MCF7 [1]): Dose-dependent effect | IC50 (MCF7 [1]): 102 µM | inhibition (MDA-MB-231 [2]): Dose-dependent effect | IC50 (MDA-MB-231 [2]): 99 µM | inhibition (K562 [3]): Dose-dependent effect | IC50 (K562 [3]): 66 µM | IC50 [4]: 40 µM | inhibition (BV-173): Dose-dependent effect | inhibition (HL-60): Dose-dependent effect | IC50 (HL-60; read-out: IC50): 49 µM | IC50 (CCRF-CEM): 36 µM | inhibition (CCRF-CEM): Dose-dependent effect | IC50 (MCF7 [5]): 87 µM | inhibition (MCF7 [5]): Dose-dependent effect | IC50 (MDA-MB-231 [6]): 80 µM | inhibition (MDA-MB-231 [6]): Dose-dependent effect | IC50 [10]: > 50 µM | Activity [19]: 60% | Activity [20]: 55% | Activity [21]: 51% | IC50 [11]: > 50 µM | IC50 [12]: > 50 µM

Cc1nn(C)c2nnc(Nc3ccc(S(=O)(=O)N4CCCNCC4)cc3)nc12
inhibition (MCF7 [1]): Dose-dependent effect | IC50 (MCF7 [1]): 140 µM | inhibition (MDA-MB-231 [2]): Dose-dependent effect | IC50 (MDA-MB-231 [2]): 155 µM | inhibition (K562 [3]): Dose-dependent effect | IC50 (K562 [3]): 21 µM | IC50 [4]: 22 µM | inhibition (BV-173): Dose-dependent effect | inhibition (HL-60): Dose-dependent effect | IC50 (HL-60; read-out: IC50): 38 µM | IC50 (CCRF-CEM): 36 µM | inhibition (CCRF-CEM): Dose-dependent effect | IC50 (MCF7 [5]): 123 µM | inhibition (MCF7 [5]): Dose-dependent effect | IC50 (MDA-MB-231 [6]): 150 µM | inhibition (MDA-MB-231 [6]): Dose-dependent effect | Activity (K562 [7]): Active | Activity (K562 [8]): inactive | Activity (K562 [9]): Active | IC50 [10]: 5.9 µM | IC50 [11]: > 50 µM | IC50 [12]: > 50 µM | inhibition [13]: Dose-dependent effect | inhibition [15]: Dose-dependent effect | inhibition [16]: Dose-dependent effect | inhibition (K562 [17]): Dose-dependent effect | Ratio IC50 (MDA-MB-231 [26]): 7
